Reference: patent US8575175B2, “Therapeutic agent for chronic renal failure” (Toray Industries, Inc., priority 2008, dated 2013)
Where a name gives a salt, the structure may show the parent alone.

Experiments:
[1] = test system: ADP-induced rat platelet aggregation; experiment: Platelet aggregation inhibition action in rat (ADP-induced aggregation after oral administration); format: in vivo; settings: stimulation with 10 μM ADP; oral: sodium salt of Compound 1 30 mg/kg (blood at 1 hour), beraprost sodium 0.3 mg/kg (0.5 hour); n=6
Experimental: To determine the dose with which the PGI2-receptor agonistic activity is equivalent between the sodium salt of Compound 1 and beraprost sodium, the platelet aggregation inhibition action which is the major pharmacological action of PGI2-receptor agonists was used as an index for comparison. The sodium salt of Compound 1 (30 mg/kg) or beraprost sodium (0.3 mg/kg) was orally administered to rats fasted for 1 day, and blood was collected therefrom at the time when the plasma level of each compound became maximum, that is, 1 hour after the administration of the sodium salt of Compound 1 (Non-patent Document: J Pharmacol Exp Ther 322:1181-1188 2007) or 0.5 hour after the administration of beraprost sodium (Non-patent Document: Xenobiotic Metabolism and Disposition 6:713-725 1989), followed by measuring ADP-induced rat platelet aggregation. In the both groups, the experiment was carried out with n=6. The sodium salt of Compound 1, which was one of the PGI2-receptor agonists used herein, was synthesized by treating a carboxylic acid with sodium hydroxide, which carboxylic acid was synthesized according to the method described in Patent Document 4.

[2] = test system: rats suffering from chronic renal failure; experiment: Pharmacological effect in rats suffering from chronic renal failure: renal function, hematocrit, hemoglobin; format: in vivo, WKY rats; settings: for Hematocrit value / Hemoglobin content: oral twice a day from week 2
Experimental: Rabbit anti-rat glomerular basement membrane antiserum (14-fold diluted, 3 mL/kg) was intravenously injected to WKY rats of 8 weeks old, to induce glomerulonephritis. […] Further, creatinine clearance, which is used as an alternative to glomerular filtration rate (GFR), was 2.63±0.07 mL/min. (N=3) in the normal group, and 1.22±0.04 mL/min. (N=21) in the nephritis-induced group. That is, creatinine clearance in the nephritis-induced group decreased to not more than 50% with respect to that of the normal group, and therefore it was confirmed that the nephritis-induced group developed chronic renal failure whose primary disease was glomerulonephritis. Thus, the time of establishment of the chronic renal failure was defined as 2 weeks after the induction of nephritis. […] This stage was the phase in which introduction of dialysis is considered in human, and corresponded to the most serious phase in chronic renal failure in the conservative stage.
Thus, 2 weeks after the induction of nephritis, based on the serum creatinine value, the rats suffering from chronic renal failure were grouped into the normal group (with neither induction of nephritis nor administration, n=4), the control group (administration of only a vehicle, n=7), the group to be treated with the sodium salt of Compound 1 (administration of 30 mg/kg twice a day, n=7) and the group to be treated with beraprost sodium (administration of 0.3 mg/kg twice a day, n=7), after which oral administration of the drugs were begun, followed by daily administration thereof. As the vehicle for the drugs, 0.25% sodium carboxymethylcellulose solution was used.
(§1) From 2 weeks after the induction of nephritis when the chronic renal failure was established, until 6 weeks after the induction of nephritis, urine collection and blood collection were carried out as appropriate, and the serum creatinine value, BUN and creatinine clearance were measured for each group to evaluate renal function. Further, the hematocrit, the hemoglobin content, and the SOD activity of the renal tissue, which are closely linked to the diseased state of chronic renal failure, were measured, and the expression level of mRNA of an organic anion transporter OAT-3 was quantified. The SOD activity was measured with the SOD assay kit WST (Dojindo Laboratories), and the expression level of mRNA of OAT-3 was quantified using LightCycler FastStart DNA Master SYBR Green I (Roche).
Six weeks after the induction of nephritis when the chronic renal failure in the conservative stage progressed to a serious phase in the control group, a statistical analysis was carried out. In terms of statistical difference, homoscedasticity was tested by the Bartlett's test between the control group and the respective drug-administered groups. In homoscedastic cases, the parametric Dunnett's test was carried out between the respective drug-administered groups and the control group, while in heteroscedastic cases, the nonparametric Dunnett's test was carried out therebetween, using a significance level of less than 5%.

SOD = SOD activity in the renal tissue of rats suffering from chronic renal failure; format: in vivo, WKY rats; settings: 6 weeks after induction of nephritis, oral twice a day from week 2, mean ± SE, n=7
Experimental: (§2) Rabbit anti-rat glomerular basement membrane antiserum (14-fold diluted, 3 mL/kg) was intravenously injected to WKY rats of 8 weeks old, to induce glomerulonephritis. […] Further, creatinine clearance, which is used as an alternative to glomerular filtration rate (GFR), was 2.63±0.07 mL/min. (N=3) in the normal group, and 1.22±0.04 mL/min. (N=21) in the nephritis-induced group. That is, creatinine clearance in the nephritis-induced group decreased to not more than 50% with respect to that of the normal group, and therefore it was confirmed that the nephritis-induced group developed chronic renal failure whose primary disease was glomerulonephritis. Thus, the time of establishment of the chronic renal failure was defined as 2 weeks after the induction of nephritis. […]
as §1, with “The SOD activity was measured with the SOD assay kit WST (Dojindo Laboratories), and the expression level of mRNA of OAT-3 was quantified using LightCycler FastStart DNA Master SYBR Green I (Roche).” left out

OAT-3 = experiment: Expression level of mRNA of OAT-3 in the renal cortex of rats suffering from chronic renal failure; format: in vivo, WKY rats; settings: 6 weeks after induction of nephritis, oral twice a day from week 2, mean ± SE, n=7, normal group 1.00 ± 0.06
Experimental: as §2
as §1, with “The SOD activity was measured with the SOD assay kit WST (Dojindo Laboratories), and the expression level of mRNA of OAT-3 was quantified using LightCycler FastStart DNA Master SYBR Green I (Roche).” left out

[3] = after oral administration to rats; from cited literature; cited from earlier work
[4] = Plasma level of Compound 1 and bioavailability after administration of Compound 1 and Compound 2 to rats; format: in vivo; settings: rat, 5 mg/kg oral vs Compound 1 1 mg/kg intravenous, Compound 1 measured in plasma, corrected for molecular weight, mean ± SE, n=3
Experimental: Compound 1 or Compound 2 was orally administered to rats in an amount of 5 mg/kg, and Compound 1 was intravenously administered in an amount of 1 mg/kg, after which the concentration of Compound 1 in plasma was measured. The experiment was carried out with n=3 in each of the both groups. […] Thus, it was shown that Compound 2 can be used in a manner similar to Compound 1. Compound 1 and Compound 2 used in this experiment was synthesized in accordance with the method described in Patent Document 4.

[5] = 6 weeks after induction of nephritis, oral twice a day from week 2 (Compound 1 Na salt 30 mg/kg, beraprost sodium 0.3 mg/kg), mean ± SE, n=7
[6] = 6 weeks after induction of nephritis, mean ± SE, n=7
[7] = until 6 weeks after the induction of nephritis, 30 mg/kg oral twice a day

Structure (SMILES)	rate of suppression of rat platelet aggregation [1]	BUN [2, 5]	Creatinine clearance [2, 5]	Serum creatinine value [2, 5]	Hematocrit value [2, 6]	Hemoglobin content [2, 6]	SOD activity (%, taking the activity in the normal group as 100%) (SOD)	Expression level of mRNA of OAT-3 (ratio to that of GAPD) (OAT-3)	time when the plasma level became maximum [3]	bioavailability [4]	Creatinine clearance ([2]; 2 weeks after induction of nephritis, at the beginning of the administration (baseline of the treated group))	Creatinine clearance ([2]; 6 weeks after induction of nephritis, oral twice a day from week 2 (Compound 1 Na salt 30 mg/kg, beraprost sodium 0.3 mg/kg), mean ± SE, n=7, listed as sodium salt of Compound 1)	BUN, course compared to control group (FIG. 2) [2, 7]	creatinine clearance, course compared to control group (FIG. 3) [2, 7]	serum creatinine value, course compared to control group (FIG. 1) [2, 7]
CC#CCC(C)[C@H](O)/C=C/[C@@H]1[C@H]2c3cccc(CCCC(=O)O)c3O[C@H]2C[C@H]1O (mixture of isomers) [Beraprost sodium, reference compound]	64.2±8.3%	42.1 ± 6.41 mg/dL	0.77 ± 0.13 mL/min	0.85 ± 0.12 mg/dL	33.9 ± 0.97%	12.3 ± 0.28 g/dL	67.9 ± 5.45%	0.24 ± 0.04	0.5 h	–	–	–	–	–	–
CC(C)N(CCCCOCC(=O)O)c1cnc(-c2ccccc2)c(-c2ccccc2)n1 [Compound 1]	–	–	–	–	–	–	–	–	–	43.3 ± 2.6%	–	–	–	–	–
CC(C)N(CCCCOCC(=O)O)c1cnc(-c2ccccc2)c(-c2ccccc2)n1 [Sodium salt of Compound 1]	47.0±7.9%	26.8 ± 2.49 mg/dL	1.48 ± 0.11 mL/min	0.47 ± 0.04 mg/dL	37.1 ± 0.71 %	13.7 ± 0.28 g/dL	83.6 ± 2.52 %	0.42 ± 0.05	1 h	–	1.21 ± 0.06 mL/min	1.48 ± 0.11 mL/min	kept low compared to that in the control group	kept high compared to that in the control group	kept low compared to that in the control group
